Source: article PMC12211128, “Safety, tolerability, pharmacokinetic and pharmacodynamic effects of the muscarinic M1 positive allosteric modulator VU0467319 for Alzheimer’s disease: a single ascending-dose study in healthy participants” (Alzheimer's Research & Therapy, 2025)
“Also recorded” adds a separate entry of the source.

Tests used:
healthy participants [1] = experiment: Treatment emergent adverse event (TEAE) monitoring; assay type: in vivo, human
Procedure: Safety and tolerability were assessed throughout the study via treatment emergent adverse event (TEAE) monitoring, vital signs (blood pressure, pulse rate, respiration rate, oral temperature), physical examinations, 12-lead ECGs, and clinical laboratory parameters including complete blood count (CBC), coagulation, hematology, clinical chemistry assessments, and urinalysis. Safety laboratory tests were drawn at pre-dose and at 5, 24, 36 and 144-hours post-dose for 60–400 mg Cohorts; and at 24, 48, 72 and 144-hours post-dose for the 600 mg and Food Effect Cohort. ECG assessments were conducted at pre-dose and at 1, 2, 3, 5, 9, 24, 36 and 144-hours post-dose for 60–400 mg Cohorts; and at 2, 3, 5, 9, 24, 36, 72 and 144-hours post-dose for the 600 mg and Food Effect Cohort. All adverse events (AEs) were assessed by the investigator for severity and relationship to study medication or study procedures.
All AEs were coded using the Medical Dictionary for Regulatory Activities (MedDRA) version 22.0. All AEs were listed, and the emergence of TEAEs were categorized by body system affected and analyzed to determine whether they were related to treatment. Analysis of TEAEs for VU319 vs. Placebo were completed using Fisher’s Exact Test. Assessment of the grade of toxicity or relation to the study drug for each adverse event was determined by the Investigator. Changes in vital signs, physical examination, and laboratory tests were collected. Changes in vital signs from pre-dose to 48 h post-dose were placed into 10-time bins and assessed using mixed-measures ANOVA with the time bins as the within-subjects factor and dose as the between-subjects factor. To assess changes is QT analyses with respect to VU319 concentration, we calculated the maximal change in QTcF from baseline for each participant. We assessed the relationship between these maximal changes from baseline with the participant’s Cmax using Pearson correlations. Outlier QTcF values (> 450 ms) were also assessed against PK concentrations to examine it there was any relationship using Pearson correlations. Analyses of safety data was completed by SAS version 9.4.

healthy participants [2] = experiment: N-back sequential letter task; assay type: in vivo, human; conditions: for N-Back 0-back Sensitivity (d’) / N-Back 1-back Sensitivity / N-Back 2-back Sensitivity / N-Back 3-back Sensitivity: mean (SD)
Excerpt: A visually presented N-back sequential letter task was used to assess working memory performance, wherein participants saw a string of consonants (except L, W, and Y), presented in upper case letters, one every 3 s. Four conditions were presented: 0-back, 1-back, 2-back, and 3-back. The main outcome variable of the n-back task was sensitivity (d’) for each of the four conditions, calculated as: d’ = Z (Hit)– Z (False alarms).
Cognitive data: In this exploratory analysis, each outcome variable of the cognitive data was examined in a mixed model analysis of variance with one between-subjects factor of VU319 dose (0, 60, 120, 240, 400, 600 mg) and a within-subjects factor of testing session (pre-dose vs. post-dost administration). Post-hoc analysis compared each of the VU319 dose cohorts against the placebo group. Because the participants were healthy adults with normal cognitive function, we considered effects between no reductions in function to small improvement (d = 0.0–0.20) to be a positive result. For the food effect study, only the participants who received VU319 were examined due to the disproportionately small placebo group (n = 2). A within-subjects ANOVA including food condition (fasted/fed) and testing session (pre-dose vs. post-dose administration) was performed on each outcome variable.
A visually presented N-back sequential letter task (Jonides et al., 1997; Saykin et al., 2004) was used to assess working memory performance, wherein participants saw a string of consonants (except L, W, and Y), presented in upper case letters, one every 3 s. Four conditions were presented: 0-back, 1-back, 2-back, and 3-back. The 0-back control condition required participants to decide if the current letter matched a single target letter that was specified before the epoch began. In each of the 1-back, 2-back, and 3-back conditions, the task is to decide whether the letter currently presented matches the letter that has been presented 1, 2, or 3 back in the sequence. The 0-, 1-, 2-, and 3-back conditions were performed in two blocks of 27 trials each for a total of 216 trials. The blocks were presented in a counterbalanced order such that the same condition was not repeated two times in a row. The main outcome variable of the n-back task was sensitivity (d’) for each of the four conditions, calculated as: d’ = Z (Hit) – Z (False alarms).

M1 mAChR = conditions: cited from earlier work
[3] = Food effect study 120 mg, Fasting, Post-Drug
[4] = Food effect study 120 mg, Fasting, Pre-Drug
[5] = Food effect study 120 mg, Fed, Post-Drug
[6] = Food effect study 120 mg, Fed, Pre-Drug

Q: For `Cn1cc2c(-c3cc(F)c(CN4Cc5ncccc5C4=O)c(F)c3)cccc2n1` [VU319], which “TEAEs, VU319 vs placebo (Fisher's Exact Tests)” value (healthy participants [1]; in vivo) is on record?
A: did not show a significant difference

Q: And the “number of TEAEs across the 5 active dose cohorts” value (healthy participants [1]; in vivo)?
A: 33

Q: What about the “serious TEAEs, deaths, discontinuations” value (healthy participants [1]; single oral doses 60-600 mg) of the same compound?
A: No TEAE was rated as serious; also recorded: no serious TEAEs or discontinuations occurred; also recorded: no deaths, serious TEAEs, or TEAEs leading to discontinuation

Q: And the tolerability (healthy participants [1]; single oral doses 60 to 600 mg, healthy volunteers aged 18-55)?
A: Tolerability was good; also recorded: generally well tolerated

Q: And the “maximum tolerated dose (MTD)” value (healthy participants [1]; single oral doses up to 600 mg)?
A: not achieved

Q: And the “N-back 2-back d', vs placebo, effect size d” value (healthy participants [2]; 400 mg, p = 0.12)?
A: 0.87

Q: What about the “N-back 1-back d', vs placebo, effect size d” value (healthy participants [2]; 600 mg, p = 0.12) of the same compound?
A: 0.86

Q: And the “N-Back 0-back Sensitivity (d’)” value (healthy participants [2]; [3])?
A: 5.15 (1.1)

Q: And the “N-Back 1-back Sensitivity” value (healthy participants [2]; [3])?
A: 3.38 (2.09)

Q: And the “N-Back 2-back Sensitivity” value (healthy participants [2]; [3])?
A: 2.3 (1.64)

Q: What about the “N-Back 3-back Sensitivity” value (healthy participants [2]; [3]) of the same compound?
A: 1.96 (1.4)

Q: And the “N-Back 0-back Sensitivity (d’)” value (healthy participants [2]; [4])?
A: 4.64 (1.22)

Q: And the “N-Back 1-back Sensitivity” value (healthy participants [2]; [4])?
A: 5.01 (0.93)

Q: What about the “N-Back 2-back Sensitivity” value (healthy participants [2]; [4]) of the same compound?
A: 3.79 (1.18)

Q: What about the “N-Back 3-back Sensitivity” value (healthy participants [2]; [4]) of the same compound?
A: 2.55 (1.42)

Q: And the “N-Back 0-back Sensitivity (d’)” value (healthy participants [2]; [5])?
A: 4.62 (1.32)

Q: And the “N-Back 1-back Sensitivity” value (healthy participants [2]; [5])?
A: 4.13 (1.6)

Q: What about the “N-Back 2-back Sensitivity” value (healthy participants [2]; [5]) of the same compound?
A: 2.89 (1.42)

Q: What about the “N-Back 3-back Sensitivity” value (healthy participants [2]; [5]) of the same compound?
A: 2.53 (0.97)

Q: What about the “N-Back 0-back Sensitivity (d’)” value (healthy participants [2]; [6]) of the same compound?
A: 4.67 (1.4)

Q: And the “N-Back 1-back Sensitivity” value (healthy participants [2]; [6])?
A: 5.42 (0.99)

Q: And the “N-Back 2-back Sensitivity” value (healthy participants [2]; [6])?
A: 3.75 (1.21)

Q: What about the “N-Back 3-back Sensitivity” value (healthy participants [2]; [6]) of the same compound?
A: 2.29 (0.65)

Q: And the “N-Back 0-back Sensitivity (d’)” value (healthy participants [2]; SAD study, 60 mg, Post-Drug)?
A: 5.37 (1.26)

Q: What about the “N-Back 1-back Sensitivity” value (healthy participants [2]; SAD study, 60 mg, Post-Drug) of the same compound?
A: 4.99 (1.48)

Q: What about the “N-Back 2-back Sensitivity” value (healthy participants [2]; SAD study, 60 mg, Post-Drug) of the same compound?
A: 3.12 (1.22)

Q: And the “N-Back 3-back Sensitivity” value (healthy participants [2]; SAD study, 60 mg, Post-Drug)?
A: 2.11 (0.36)

Q: And the “N-Back 0-back Sensitivity (d’)” value (healthy participants [2]; SAD study, 60 mg, Pre-Drug)?
A: 5.64 (0.84)

Q: What about the “N-Back 1-back Sensitivity” value (healthy participants [2]; SAD study, 60 mg, Pre-Drug) of the same compound?
A: 5.01 (1.17)

Q: And the “N-Back 2-back Sensitivity” value (healthy participants [2]; SAD study, 60 mg, Pre-Drug)?
A: 3.35 (0.91)

Q: And the “N-Back 3-back Sensitivity” value (healthy participants [2]; SAD study, 60 mg, Pre-Drug)?
A: 2.65 (0.49)

Q: What about the “N-Back 0-back Sensitivity (d’)” value (healthy participants [2]; SAD study, 120 mg, Post-Drug) of the same compound?
A: 5.37 (1.26)

Q: And the “N-Back 1-back Sensitivity” value (healthy participants [2]; SAD study, 120 mg, Post-Drug)?
A: 4.46 (1.35)

Q: What about the “N-Back 2-back Sensitivity” value (healthy participants [2]; SAD study, 120 mg, Post-Drug) of the same compound?
A: 3.25 (2.19)

Q: What about the “N-Back 3-back Sensitivity” value (healthy participants [2]; SAD study, 120 mg, Post-Drug) of the same compound?
A: 1.75 (1.14)

Q: What about the “N-Back 0-back Sensitivity (d’)” value (healthy participants [2]; SAD study, 120 mg, Pre-Drug) of the same compound?
A: 5.64 (0.84)

Q: And the “N-Back 1-back Sensitivity” value (healthy participants [2]; SAD study, 120 mg, Pre-Drug)?
A: 4.91 (1.08)

Q: And the “N-Back 2-back Sensitivity” value (healthy participants [2]; SAD study, 120 mg, Pre-Drug)?
A: 3.28 (1.98)

Q: What about the “N-Back 3-back Sensitivity” value (healthy participants [2]; SAD study, 120 mg, Pre-Drug) of the same compound?
A: 2.34 (1.12)

Q: What about the “N-Back 0-back Sensitivity (d’)” value (healthy participants [2]; SAD study, 240 mg, Post-Drug) of the same compound?
A: 6.18 (0)

Q: And the “N-Back 1-back Sensitivity” value (healthy participants [2]; SAD study, 240 mg, Post-Drug)?
A: 4.32 (2.3)

Q: What about the “N-Back 2-back Sensitivity” value (healthy participants [2]; SAD study, 240 mg, Post-Drug) of the same compound?
A: 3.42 (2.29)

Q: What about the “N-Back 3-back Sensitivity” value (healthy participants [2]; SAD study, 240 mg, Post-Drug) of the same compound?
A: 1.66 (0.83)

Q: What about the “N-Back 0-back Sensitivity (d’)” value (healthy participants [2]; SAD study, 240 mg, Pre-Drug) of the same compound?
A: 6.18 (0)

Q: And the “N-Back 1-back Sensitivity” value (healthy participants [2]; SAD study, 240 mg, Pre-Drug)?
A: 4.72 (2.02)

Q: And the “N-Back 2-back Sensitivity” value (healthy participants [2]; SAD study, 240 mg, Pre-Drug)?
A: 3.77 (1.84)

Q: And the “N-Back 3-back Sensitivity” value (healthy participants [2]; SAD study, 240 mg, Pre-Drug)?
A: 2.37 (0.81)

Q: And the “N-Back 0-back Sensitivity (d’)” value (healthy participants [2]; SAD study, 400 mg, Post-Drug)?
A: 6.18 (0)

Q: And the “N-Back 1-back Sensitivity” value (healthy participants [2]; SAD study, 400 mg, Post-Drug)?
A: 5.37 (1.26)

Q: And the “N-Back 2-back Sensitivity” value (healthy participants [2]; SAD study, 400 mg, Post-Drug)?
A: 3.6 (1.84)

Q: And the “N-Back 3-back Sensitivity” value (healthy participants [2]; SAD study, 400 mg, Post-Drug)?
A: 2.01 (0.74)

Q: What about the “N-Back 0-back Sensitivity (d’)” value (healthy participants [2]; SAD study, 400 mg, Pre-Drug) of the same compound?
A: 6.18 (0)

Q: What about the “N-Back 1-back Sensitivity” value (healthy participants [2]; SAD study, 400 mg, Pre-Drug) of the same compound?
A: 5.64 (0.84)

Q: And the “N-Back 2-back Sensitivity” value (healthy participants [2]; SAD study, 400 mg, Pre-Drug)?
A: 3.54 (1.69)

Q: What about the “N-Back 3-back Sensitivity” value (healthy participants [2]; SAD study, 400 mg, Pre-Drug) of the same compound?
A: 2.34 (0.74)

Q: What about the “N-Back 0-back Sensitivity (d’)” value (healthy participants [2]; SAD study, 600 mg, Post-Drug) of the same compound?
A: 5.27 (1.43)

Q: And the “N-Back 1-back Sensitivity” value (healthy participants [2]; SAD study, 600 mg, Post-Drug)?
A: 5.09 (1.06)

Q: And the “N-Back 2-back Sensitivity” value (healthy participants [2]; SAD study, 600 mg, Post-Drug)?
A: 4.43 (1.72)

Q: What about the “N-Back 3-back Sensitivity” value (healthy participants [2]; SAD study, 600 mg, Post-Drug) of the same compound?
A: 2.94 (1.3)

Q: And the “N-Back 0-back Sensitivity (d’)” value (healthy participants [2]; SAD study, 600 mg, Pre-Drug)?
A: 5.57 (0.95)

Q: And the “N-Back 1-back Sensitivity” value (healthy participants [2]; SAD study, 600 mg, Pre-Drug)?
A: 5.07 (0.59)

Q: And the “N-Back 2-back Sensitivity” value (healthy participants [2]; SAD study, 600 mg, Pre-Drug)?
A: 4.31 (1.69)

Q: What about the “N-Back 3-back Sensitivity” value (healthy participants [2]; SAD study, 600 mg, Pre-Drug) of the same compound?
A: 3.3 (1.02)

Q: And the “N-back d' score, effect of dose” value (healthy participants [2]; SAD study, four conditions, all p > 0.2)?
A: did not show a significant effect of dose, nor dose by time

Q: And the “N-back 2-back sensitivity, effect of time of testing, effect size d” value (healthy participants [2]; food effect study, 120 mg, p = 0.004, not related to food condition)?
A: 2.55

Q: What about the “N-back 1-back sensitivity, effect of time of testing, effect size d” value (healthy participants [2]; food effect study, 120 mg, p = 0.015, not related to food condition) of the same compound?
A: 2.0

Q: And the “agonist properties at M1” value (M1 mAChR)?
A: devoid of agonist properties; also recorded: lack of direct orthosteric agonism of M1 receptors
